Experimental data: ChEMBL document CHEMBL6109134, “Discovery of AMG 193, an MTA-Cooperative PRMT5 Inhibitor for the Treatment of MTAP-Deleted Cancers” (J Med Chem, 2025)

What was measured:
[1] = in vivo; conditions: beagle, dog, iv, 0.5 mg/kg
[2] = Metabolic stability in rat liver microsomes assessed as intrinsic clearance; format: ADME, Microsome; conditions: time 40 min, read-out: CLH
[3] = Metabolic stability in rat hepatocytes assessed as intrinsic clearance measured per 10^6 cells; format: ADME, cell-based, Hepatocyte; conditions: read-out: CLH
[4] = Metabolic stability in human hepatocytes assessed as intrinsic clearance measured per 10^6 cells; format: ADME, cell-based, Hepatocyte; conditions: read-out: CLH
[5] = Clearance in Beagle dog at 0.5 mg/kg, iv; conditions: in vivo
[6] = Metabolic stability in mouse liver microsomes assessed as intrinsic clearance at 0.5 uM incubated for 40 mins in presence of NADPH; format: ADME, Microsome; conditions: read-out: CLH
[7] = tested on: HCT-116; test: Antiproliferative activity against MTAP-deleted human HCT-116 cells assessed as effect on cell viability incubated for 6 days by Celltiter-Glo luminescent cell viability assay; format: functional, cell-based; conditions: HCT-116, 144 h
[8] = Drug metabolism in human hepatocytes assessed as 3-methylquinoline ring system oxidation mediated metabolite formation; format: ADME, cell-based, Hepatocyte
[9] = Metabolic stability in dog hepatocytes assessed as intrinsic clearance measured per 10^6 cells; format: ADME, cell-based, Canis lupus familiaris, Hepatocyte; conditions: read-out: CLH
[10] = Unbound clearance in Sprague-Dawley rat at 0.5 mg/kg, iv; format: ADME, organism-based; conditions: in vivo
[11] = Protein binding in mouse plasma assessed as unbound fraction by ultracentrifugation
[12] = Half-life in Sprague-Dawley rat at 0.5 mg/kg, iv; format: ADME, organism-based; conditions: in vivo
[13] = tested on: BXPC-3; test: Antiproliferative activity against human BXPC-3 cells assessed as effect on cell viability; format: functional, cell-based
[14] = Oral bioavailability in Beagle dog at 2 mg/kg administered as 1% Tween 80, 2% HPMC, 97% water/methanesulfonic acid, pH 2.0 formulation; format: ADME, organism-based, Canis lupus familiaris; conditions: in vivo
[15] = Half-life in Beagle dog at 0.5 mg/kg, iv; format: ADME, organism-based, Canis lupus familiaris; conditions: in vivo
[16] = AUC (0 to t) in CD-1 mouse at 5 mg/kg, po administered as 1% Tween 80, 2% HPMC, 97% water/methane sulfonic acid, pH 2.0 formulation; format: ADME, organism-based; conditions: in vivo
[17] = Protein binding in human plasma assessed as unbound fraction by ultracentrifugation
[18] = Metabolic stability in dog liver microsomes assessed as intrinsic clearance; format: ADME, Canis lupus familiaris, Microsome; conditions: read-out: CLH
[19] = Volume of distribution at steady state in Sprague-Dawley rat at 0.5 mg/kg, iv; conditions: in vivo
[20] = tested on: U-87 MG; test: Antiproliferative activity against human U-87 MG cells assessed as effect on cell viability; format: functional, cell-based, U-87MG ATCC
[21] = Unbound clearance in CD-1 mouse at 1 mg/kg, iv; format: ADME, organism-based; conditions: in vivo
[22] = tested on: HCT-116; test: Antiproliferative activity against human HCT-116 cells harboring wildtype MTAP assessed as effect on cell viability incubated for 6 days by Celltiter-Glo luminescent cell viability assay; format: functional, cell-based; conditions: HCT-116, 144 h
[23] = Clearance in Sprague-Dawley rat at 0.5 mg/kg, iv; conditions: in vivo
[24] = tested on: DOHH-2; test: Antiproliferative activity against human DOHH-2 cells assessed as effect on cell viability; format: functional, cell-based
[25] = Metabolic stability in mouse hepatocytes assessed as intrinsic clearance measured per 10^6 cells; format: ADME, cell-based, Hepatocyte; conditions: read-out: CLH
[26] = Protein binding in dog plasma assessed as unbound fraction by ultracentrifugation
[27] = Unbound clearance in Beagle dog at 0.5 mg/kg, iv; format: ADME, organism-based, Canis lupus familiaris; conditions: in vivo
[28] = Metabolic stability in human liver microsomes assessed as intrinsic clearance at 0.5 uM incubated for 40 mins in presence of NADPH; format: ADME, Microsome; conditions: read-out: CLH
[29] = Drug metabolism in mouse hepatocytes assessed as 3-methylquinoline ring system oxidation mediated metabolite formation; format: ADME, cell-based, Hepatocyte
[30] = target: T1, Nuclear receptor subfamily 1 group I member 2 (Homo sapiens, UniProt O75469); test: Activation of human PXR in human HepG2 cells co-transfected with CYP3A4-luciferase at 10 uM incubated for 1 day relative to control; conditions: hepg2, 24 h
T1 sequence (O75469 whole entry): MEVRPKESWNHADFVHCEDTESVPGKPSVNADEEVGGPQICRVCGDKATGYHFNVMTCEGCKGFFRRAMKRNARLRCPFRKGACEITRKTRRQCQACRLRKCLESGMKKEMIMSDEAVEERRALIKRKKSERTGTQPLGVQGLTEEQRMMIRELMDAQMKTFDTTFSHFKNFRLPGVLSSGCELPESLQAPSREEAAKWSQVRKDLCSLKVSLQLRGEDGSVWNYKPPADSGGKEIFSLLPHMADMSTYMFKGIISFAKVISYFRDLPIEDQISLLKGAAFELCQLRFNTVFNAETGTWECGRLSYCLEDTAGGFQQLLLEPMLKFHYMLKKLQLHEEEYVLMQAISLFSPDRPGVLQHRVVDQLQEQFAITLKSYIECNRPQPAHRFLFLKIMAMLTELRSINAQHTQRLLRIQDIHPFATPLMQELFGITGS

[31] = Half-life in CD-1 mouse at 1 mg/kg, iv; format: ADME, organism-based; conditions: in vivo
[32] = tested on: human MDR1 (P-gp); test: Efflux ratio of permeability across basolateral to apical side over apical to basolateral side in MDCK cells transfected with human MDR1 in absence of elacridar; conditions: dog
[33] = target: CYP3A4 (Homo sapiens, UniProt P08684); test: in vitro; conditions: human liver microsomes, probe midazolam
[34] = target: PRMT5/MEP50 complex (Homo sapiens, UniProt O14744)
Description: Inhibition of PRMT5/MEP50 (unknown origin) preincubated with compound for 24 hrs in presence of SAM and MTA followed by Histone H4 (1-21)-Lys(Biotin) peptide addition and measured after 2 hrs by MTase-Glo reagent based assay

[35] = in vivo; conditions: CD-1, mouse, iv, 1 mg/kg
[36] = Clearance in CD-1 mouse at 1 mg/kg, iv; conditions: in vivo
[37] = Oral bioavailability in CD-1 mouse at 5 mg/kg administered as 1% Tween 80, 2% HPMC, 97% water/methane sulfonic acid, pH 2.0 formulation; format: ADME, organism-based; conditions: in vivo

CYP3A4, sequence (P08684 whole entry): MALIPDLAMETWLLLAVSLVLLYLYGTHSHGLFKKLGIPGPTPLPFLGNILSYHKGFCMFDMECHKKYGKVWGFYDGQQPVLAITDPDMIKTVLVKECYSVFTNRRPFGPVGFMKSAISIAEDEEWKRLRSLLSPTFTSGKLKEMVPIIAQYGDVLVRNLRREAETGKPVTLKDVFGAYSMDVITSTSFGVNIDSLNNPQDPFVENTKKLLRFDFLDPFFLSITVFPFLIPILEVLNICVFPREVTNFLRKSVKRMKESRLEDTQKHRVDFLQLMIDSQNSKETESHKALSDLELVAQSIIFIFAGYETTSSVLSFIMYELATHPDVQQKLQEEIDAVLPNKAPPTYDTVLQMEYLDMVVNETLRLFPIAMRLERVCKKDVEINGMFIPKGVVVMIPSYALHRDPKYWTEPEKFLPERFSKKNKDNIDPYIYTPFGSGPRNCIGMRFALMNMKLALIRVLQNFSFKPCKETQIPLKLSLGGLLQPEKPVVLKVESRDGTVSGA
PRMT5/MEP50 complex, sequence (O14744 whole entry): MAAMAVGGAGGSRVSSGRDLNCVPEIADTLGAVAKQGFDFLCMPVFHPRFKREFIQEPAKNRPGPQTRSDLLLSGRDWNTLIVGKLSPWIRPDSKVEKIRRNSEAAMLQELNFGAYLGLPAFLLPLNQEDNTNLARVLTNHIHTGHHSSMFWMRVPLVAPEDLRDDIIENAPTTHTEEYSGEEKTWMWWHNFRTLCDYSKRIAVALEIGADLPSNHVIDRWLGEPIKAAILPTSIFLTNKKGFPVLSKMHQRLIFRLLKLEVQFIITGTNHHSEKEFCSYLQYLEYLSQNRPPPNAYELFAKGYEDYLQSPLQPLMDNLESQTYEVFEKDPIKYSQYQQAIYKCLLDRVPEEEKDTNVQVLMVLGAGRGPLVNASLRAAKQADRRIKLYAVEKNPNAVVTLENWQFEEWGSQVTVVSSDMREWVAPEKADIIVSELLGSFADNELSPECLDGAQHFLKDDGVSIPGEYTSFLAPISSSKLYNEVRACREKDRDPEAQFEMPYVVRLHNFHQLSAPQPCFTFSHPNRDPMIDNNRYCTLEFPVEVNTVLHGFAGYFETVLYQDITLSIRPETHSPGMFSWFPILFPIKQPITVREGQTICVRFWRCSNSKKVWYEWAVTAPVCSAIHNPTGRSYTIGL
PRMT5/MEP50 complex, sequence (Q9BQA1 whole entry, further chain): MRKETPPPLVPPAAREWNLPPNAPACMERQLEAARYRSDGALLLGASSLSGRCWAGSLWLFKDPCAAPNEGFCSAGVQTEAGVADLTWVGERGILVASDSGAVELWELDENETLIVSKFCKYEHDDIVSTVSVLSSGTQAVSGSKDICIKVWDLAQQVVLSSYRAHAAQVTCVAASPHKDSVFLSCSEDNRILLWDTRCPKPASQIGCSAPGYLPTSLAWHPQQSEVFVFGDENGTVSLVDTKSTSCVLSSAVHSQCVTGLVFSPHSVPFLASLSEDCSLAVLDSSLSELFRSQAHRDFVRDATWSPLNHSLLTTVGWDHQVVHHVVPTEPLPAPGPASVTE

Cc1cc2cc(C(=O)N(Cc3ccc(C(F)(F)F)cn3)[C@H](C)c3ncccn3)ccc2nc1N
Vd [1]: 1.9 L/kg | microsomal CLint at 0.5 µM [2]: 25 µL/min/mg | hepatocyte CLint [3]: 11 µL/min/1e6 cells | hepatocyte CLint [4]: 9 µL/min/1e6 cells | clearance [5]: 25 mL/min/kg | microsomal CLint at 0.5 µM [6]: 90 µL/min/mg | IC50 [7]: 40 nM | Drug metabolism [8]: metabolite_detected | hepatocyte CLint [9]: 12 µL/min/1e6 cells | CL free [10]: 167 mL/min/kg | fraction unbound ([11]; plasma): 0.12 | half-life [12]: 2.1 h | IC50 [13]: 73 nM | bioavailability [14]: 45% | half-life [15]: 1.2 h | AUC(0-t) [16]: 1.01 µM·h | fraction unbound [17]: 0.1 | microsomal CLint [18]: 25 µL/min/mg | Vd [19]: 1.3 L/kg | IC50 [20]: 65 nM | CL free [21]: 317 mL/min/kg | IC50 [22]: 854 nM | clearance [23]: 26.7 mL/min/kg | IC50 [24]: 17 nM | hepatocyte CLint [25]: 18 µL/min/1e6 cells | fraction unbound [26]: 0.2 | CL free [27]: 123 mL/min/kg | microsomal CLint at 0.5 µM [28]: 19 µL/min/mg | Drug metabolism [29]: metabolite_detected

C[C@H]1OCc2c1c(N)nc1cnc(C(=O)N3CCOC[C@@H]3c3ccc(C(F)(F)F)cc3)cc21
Activity [30]: 80% | half-life [31]: 1.6 h | efflux ratio [32]: 7 | microsomal CLint at 0.5 µM [6]: 51 µL/min/mg | IC50 [7]: 64 nM | inhibition at 30 min, 10 µM [33]: < 20% | fraction unbound ([11]; mouse plasma): 0.09 | Ki [34]: < 0.1 nM | CL free [21]: 147 mL/min/kg | IC50 [22]: 2460 nM | Vd [35]: 1.8 L/kg | clearance [36]: 13.3 mL/min/kg | bioavailability [37]: 82% | microsomal CLint at 0.5 µM [28]: 26 µL/min/mg

C[C@@H]1COC[C@H](c2ccc(C(F)(F)F)cc2)N1C(=O)c1cc2c3c(c(N)nc2cn1)COC3
Activity [30]: < 20% | half-life [31]: 2.6 h | efflux ratio [32]: 5 | microsomal CLint at 0.5 µM [6]: 178 µL/min/mg | IC50 [7]: 7 nM | inhibition at 30 min, 10 µM [33]: < 20% | fraction unbound ([11]; mouse plasma): 0.08 | Ki [34]: < 0.1 nM | CL free [21]: 233 mL/min/kg | IC50 [22]: 264 nM | Vd [35]: 3 L/kg | clearance [36]: 18.3 mL/min/kg | bioavailability [37]: 51% | microsomal CLint at 0.5 µM [28]: 43 µL/min/mg
